Experimental data taken from ChEMBL document CHEMBL1151010, “A case study of combinatorial libraries: Endothelin receptor antagonist hexapeptides” (Bioorg Med Chem Lett, 1995).
Square brackets hold non-standard residues; d marks the D form. Peptide text beside a SMILES is read from it. dGly(5-dibenzosuberyl) = N[C@@H](C(=O)O)C1c2ccccc2CCc2ccccc21

Target: T1, Endothelin-1 receptor (Sus scrofa) (UniProt Q29010)
T1 sequence (whole entry): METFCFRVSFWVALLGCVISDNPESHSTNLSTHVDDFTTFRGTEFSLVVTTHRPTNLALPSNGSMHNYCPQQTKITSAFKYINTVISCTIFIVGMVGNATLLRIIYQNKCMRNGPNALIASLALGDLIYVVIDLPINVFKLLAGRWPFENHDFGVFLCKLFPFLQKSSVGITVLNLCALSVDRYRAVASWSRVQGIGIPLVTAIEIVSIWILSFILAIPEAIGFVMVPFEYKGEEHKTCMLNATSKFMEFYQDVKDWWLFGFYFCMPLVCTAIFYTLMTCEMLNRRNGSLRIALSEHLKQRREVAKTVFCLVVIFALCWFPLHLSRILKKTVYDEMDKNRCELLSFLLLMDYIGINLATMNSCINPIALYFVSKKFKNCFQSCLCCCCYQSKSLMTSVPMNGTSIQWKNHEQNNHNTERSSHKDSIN
Assay: Inhibition of endothelin (ET-A) binding to porcine heart membranes
Design: concentration or dose not given beside the values
Conditions: Membrane, concentration not given here

| SMILES | inhibition [%] |
| --- | --- |
| CC[C@H](C)[C@H](NC(=O)[C@H](CCCN=C(N)N)NC(=O)[C@H](CC(=O)O)NC(=O)[C@H](CC(C)C)NC(=O)[C@H](NC(C)=O)C1c2ccccc2CCc2ccccc21)C(=O)N[C@@H](Cc1c[nH]c2ccccc12)C(=O)O | 0 |
| CC[C@H](C)[C@H](NC(=O)[C@H](CCC(N)=O)NC(=O)[C@H](CC(=O)O)NC(=O)[C@H](CC(C)C)NC(=O)[C@H](NC(C)=O)C1c2ccccc2CCc2ccccc21)C(=O)N[C@@H](Cc1c[nH]c2ccccc12)C(=O)O | 12 |
| CC[C@H](C)[C@H](NC(=O)[C@@H](NC(=O)[C@H](CC(=O)O)NC(=O)[C@H](CC(C)C)NC(=O)[C@H](NC(C)=O)C1c2ccccc2CCc2ccccc21)[C@H](C)O)C(=O)N[C@@H](Cc1c[nH]c2ccccc12)C(=O)O | 12 |
| CC[C@H](C)[C@H](NC(=O)[C@H](CC(C)C)NC(=O)[C@H](CC(=O)O)NC(=O)[C@H](CC(C)C)NC(=O)[C@H](NC(C)=O)C1c2ccccc2CCc2ccccc21)C(=O)N[C@@H](Cc1c[nH]c2ccccc12)C(=O)O | 9 |
| CC[C@H](C)[C@H](NC(=O)[C@H](Cc1ccc(O)cc1)NC(=O)[C@H](CC(=O)O)NC(=O)[C@H](CC(C)C)NC(=O)[C@H](NC(C)=O)C1c2ccccc2CCc2ccccc21)C(=O)N[C@@H](Cc1c[nH]c2ccccc12)C(=O)O | 9 |
| CC[C@H](C)[C@H](NC(=O)[C@H](Cc1c[nH]cn1)NC(=O)[C@H](CC(=O)O)NC(=O)[C@H](CC(C)C)NC(=O)[C@H](NC(C)=O)C1c2ccccc2CCc2ccccc21)C(=O)N[C@@H](Cc1c[nH]c2ccccc12)C(=O)O | 12 |
| CC[C@H](C)[C@H](NC(=O)[C@H](CCCCN)NC(=O)[C@H](CC(=O)O)NC(=O)[C@H](CC(C)C)NC(=O)[C@H](NC(C)=O)C1c2ccccc2CCc2ccccc21)C(=O)N[C@@H](Cc1c[nH]c2ccccc12)C(=O)O | 0 |
| CC[C@H](C)[C@H](NC(=O)[C@H](CCC(=O)O)NC(=O)[C@H](CC(=O)O)NC(=O)[C@H](CC(C)C)NC(=O)[C@H](NC(C)=O)C1c2ccccc2CCc2ccccc21)C(=O)N[C@@H](Cc1c[nH]c2ccccc12)C(=O)O | 0 |
| CC[C@H](C)[C@H](NC(=O)[C@H](CC(=O)O)NC(=O)[C@H](CC(C)C)NC(=O)[C@H](NC(C)=O)C1c2ccccc2CCc2ccccc21)C(=O)N[C@H](C(=O)N[C@@H](Cc1c[nH]c2ccccc12)C(=O)O)[C@@H](C)CC (Ac-[dGly(5-dibenzosuberyl)]LDIIW-OH) | 62 |
| CC[C@H](C)[C@H](NC(=O)[C@H](CO)NC(=O)[C@H](CC(=O)O)NC(=O)[C@H](CC(C)C)NC(=O)[C@H](NC(C)=O)C1c2ccccc2CCc2ccccc21)C(=O)N[C@@H](Cc1c[nH]c2ccccc12)C(=O)O | 0 |
| CC[C@H](C)[C@H](NC(=O)[C@H](Cc1c[nH]c2ccccc12)NC(=O)[C@H](CC(=O)O)NC(=O)[C@H](CC(C)C)NC(=O)[C@H](NC(C)=O)C1c2ccccc2CCc2ccccc21)C(=O)N[C@@H](Cc1c[nH]c2ccccc12)C(=O)O | 0 |
| CC[C@H](C)[C@H](NC(=O)[C@@H]1CCCN1C(=O)[C@H](CC(=O)O)NC(=O)[C@H](CC(C)C)NC(=O)[C@H](NC(C)=O)C1c2ccccc2CCc2ccccc21)C(=O)N[C@@H](Cc1c[nH]c2ccccc12)C(=O)O | 0 |
| CC[C@H](C)[C@H](NC(=O)[C@H](CC(=O)O)NC(=O)[C@H](CC(=O)O)NC(=O)[C@H](CC(C)C)NC(=O)[C@H](NC(C)=O)C1c2ccccc2CCc2ccccc21)C(=O)N[C@@H](Cc1c[nH]c2ccccc12)C(=O)O | 0 |

Target: T2, Endothelin-1 receptor (Sus scrofa, UniProt Q29010)
T2 sequence (Q29010 whole entry): T1 sequence (whole entry)
Assay: Antagonist activity against ET-A from porcine heart membranes
Format: functional, tissue-based
Conditions: not given

| SMILES | IC50 [nM] |
| --- | --- |
| CC[C@H](C)[C@H](NC(=O)[C@H](CC(=O)O)NC(=O)[C@@H](NC(=O)[C@H](NC(C)=O)C1c2ccccc2CCc2ccccc21)[C@@H](C)CC)C(=O)N[C@H](C(=O)N[C@@H](Cc1c[nH]c2ccccc12)C(=O)O)[C@@H](C)CC | 21 |
| CC[C@H](C)[C@H](NC(=O)[C@H](CC(=O)O)NC(=O)[C@H](CCCCN)NC(=O)[C@H](NC(C)=O)C1c2ccccc2CCc2ccccc21)C(=O)N[C@H](C(=O)N[C@@H](Cc1c[nH]c2ccccc12)C(=O)O)[C@@H](C)CC | 4 |
| CC[C@H](C)[C@H](NC(=O)[C@H](CC(=O)O)NC(=O)[C@H](C)NC(=O)[C@H](NC(C)=O)C1c2ccccc2CCc2ccccc21)C(=O)N[C@H](C(=O)N[C@@H](Cc1c[nH]c2ccccc12)C(=O)O)[C@@H](C)CC | 6 |
| CC[C@H](C)[C@H](NC(=O)[C@H](CC(=O)O)NC(=O)[C@H](CC(N)=O)NC(=O)[C@H](NC(C)=O)C1c2ccccc2CCc2ccccc21)C(=O)N[C@H](C(=O)N[C@@H](Cc1c[nH]c2ccccc12)C(=O)O)[C@@H](C)CC | 3 |
| CC[C@H](C)[C@H](NC(=O)[C@H](CC(=O)O)NC(=O)[C@H](CCC(N)=O)NC(=O)[C@H](NC(C)=O)C1c2ccccc2CCc2ccccc21)C(=O)N[C@H](C(=O)N[C@@H](Cc1c[nH]c2ccccc12)C(=O)O)[C@@H](C)CC | 2 |
| CC[C@H](C)[C@H](NC(=O)[C@H](CC(=O)O)NC(=O)[C@H](Cc1c[nH]cn1)NC(=O)[C@H](NC(C)=O)C1c2ccccc2CCc2ccccc21)C(=O)N[C@H](C(=O)N[C@@H](Cc1c[nH]c2ccccc12)C(=O)O)[C@@H](C)CC | 50 |
| CC[C@H](C)[C@H](NC(=O)[C@@H](NC(=O)[C@H](CC(=O)O)NC(=O)[C@H](CCC(N)=O)NC(=O)[C@H](NC(C)=O)C1c2ccccc2CCc2ccccc21)C(C)C)C(=O)N[C@@H](Cc1c[nH]c2ccccc12)C(=O)O | 1.7 |
| CC[C@H](C)[C@H](NC(=O)[C@H](CC(=O)O)NC(=O)[C@H](CCSC)NC(=O)[C@H](NC(C)=O)C1c2ccccc2CCc2ccccc21)C(=O)N[C@H](C(=O)N[C@@H](Cc1c[nH]c2ccccc12)C(=O)O)[C@@H](C)CC | 8 |
| CC[C@H](C)[C@H](NC(=O)[C@H](CC(=O)O)NC(=O)[C@H](Cc1c[nH]c2ccccc12)NC(=O)[C@H](NC(C)=O)C1c2ccccc2CCc2ccccc21)C(=O)N[C@H](C(=O)N[C@@H](Cc1c[nH]c2ccccc12)C(=O)O)[C@@H](C)CC | 11 |
| CC[C@H](C)[C@H](NC(=O)[C@H](CC(=O)O)NC(=O)[C@@H]1CCCN1C(=O)[C@H](NC(C)=O)C1c2ccccc2CCc2ccccc21)C(=O)N[C@H](C(=O)N[C@@H](Cc1c[nH]c2ccccc12)C(=O)O)[C@@H](C)CC | 6 |
| CC[C@H](C)[C@H](NC(=O)[C@H](CC(=O)O)NC(=O)[C@H](CCCN=C(N)N)NC(=O)[C@H](NC(C)=O)C1c2ccccc2CCc2ccccc21)C(=O)N[C@H](C(=O)N[C@@H](Cc1c[nH]c2ccccc12)C(=O)O)[C@@H](C)CC (Ac-[dGly(5-dibenzosuberyl)]RDIIW-OH) | 3 |
| CC[C@H](C)[C@H](NC(=O)[C@H](CC(=O)O)NC(=O)[C@H](CCC(=O)O)NC(=O)[C@H](NC(C)=O)C1c2ccccc2CCc2ccccc21)C(=O)N[C@H](C(=O)N[C@@H](Cc1c[nH]c2ccccc12)C(=O)O)[C@@H](C)CC (Ac-[dGly(5-dibenzosuberyl)]EDIIW-OH) | 11 |
| CC[C@H](C)[C@H](NC(=O)[C@H](CC(=O)O)NC(=O)[C@H](CC(=O)O)NC(=O)[C@H](NC(C)=O)C1c2ccccc2CCc2ccccc21)C(=O)N[C@H](C(=O)N[C@@H](Cc1c[nH]c2ccccc12)C(=O)O)[C@@H](C)CC | 11 |
| CC[C@H](C)[C@H](NC(=O)[C@H](CC(=O)O)NC(=O)[C@H](Cc1ccc(O)cc1)NC(=O)[C@H](NC(C)=O)C1c2ccccc2CCc2ccccc21)C(=O)N[C@H](C(=O)N[C@@H](Cc1c[nH]c2ccccc12)C(=O)O)[C@@H](C)CC | 11 |
| CC[C@H](C)[C@H](NC(=O)[C@@H](NC(=O)[C@H](CC(=O)O)NC(=O)[C@H](CCC(N)=O)NC(=O)[C@H](NC(C)=O)C1c2ccccc2CCc2ccccc21)C(C)(C)C)C(=O)N[C@@H](Cc1c[nH]c2ccccc12)C(=O)O | 5 |
| CC[C@H](C)[C@H](NC(=O)[C@H](CC(=O)O)NC(=O)[C@@H](NC(=O)[C@H](NC(C)=O)C1c2ccccc2CCc2ccccc21)[C@@H](C)O)C(=O)N[C@H](C(=O)N[C@@H](Cc1c[nH]c2ccccc12)C(=O)O)[C@@H](C)CC | 4 |
| CC[C@H](C)[C@H](NC(=O)[C@H](CC(=O)O)NC(=O)[C@H](CO)NC(=O)[C@H](NC(C)=O)C1c2ccccc2CCc2ccccc21)C(=O)N[C@H](C(=O)N[C@@H](Cc1c[nH]c2ccccc12)C(=O)O)[C@@H](C)CC | 6 |
| CC[C@H](C)[C@H](NC(=O)[C@@H](NC(=O)[C@H](CC(=O)O)NC(=O)[C@H](CC(C)C)NC(=O)[C@H](NC(C)=O)C1c2ccccc2CCc2ccccc21)C(C)(C)C)C(=O)N[C@@H](Cc1c[nH]c2ccccc12)C(=O)O | 5 |
| CC[C@H](C)[C@H](NC(=O)[C@@H](NC(=O)[C@H](CC(=O)O)NC(=O)[C@H](CC(N)=O)NC(=O)[C@H](NC(C)=O)C1c2ccccc2CCc2ccccc21)C(C)C)C(=O)N[C@@H](Cc1c[nH]c2ccccc12)C(=O)O | 4 |
| CC[C@H](C)[C@H](NC(=O)[C@H](CC(=O)O)NC(=O)[C@@H](NC(=O)[C@H](NC(C)=O)C1c2ccccc2CCc2ccccc21)C(C)C)C(=O)N[C@H](C(=O)N[C@@H](Cc1c[nH]c2ccccc12)C(=O)O)[C@@H](C)CC | 12 |
| CC[C@H](C)[C@H](NC(=O)[C@H](CC(=O)O)NC(=O)CNC(=O)[C@H](NC(C)=O)C1c2ccccc2CCc2ccccc21)C(=O)N[C@H](C(=O)N[C@@H](Cc1c[nH]c2ccccc12)C(=O)O)[C@@H](C)CC | 19 |
| CC[C@H](C)[C@H](NC(=O)[C@H](CC(=O)O)NC(=O)[C@H](Cc1ccccc1)NC(=O)[C@H](NC(C)=O)C1c2ccccc2CCc2ccccc21)C(=O)N[C@H](C(=O)N[C@@H](Cc1c[nH]c2ccccc12)C(=O)O)[C@@H](C)CC | 24 |
